The numbers were not newly measured in patent US20220016128A1, “METHODS, SYSTEM, AND KIT FOR MONITORING, DIAGNOSING, AND TREATING IMPULSIVE AGGRESSION” (Supernus Pharmaceuticals, Inc., priority 2016, published 2022), which cites them from elsewhere.

For series [1] the following is noted: oral dose.
The conditions of series [2]: acidic to slightly acidic media versus neutral to slightly alkaline pH (physiologic pH range of the gastro-intestinal tract).

The structures appear in SMILES notation.

As for `CCc1c(C)[nH]c2c1C(=O)C(CN1CCOCC1)CC2` (centres unmarked) [molindone, 3-Ethyl-6,7-dihydro-2-methyl-5-(morpholinomethyl)indol-4(5H)-one], in series [1], the plasma elimination half-life result is “about 2 hours”. Moreover, the solubility result in series [2] is given as “greater solubility in acidic to slightly acidic media than in neutral to slightly alkaline pH values”.
